Laboratory results reported in patent US10881704B2, “Usage of semen Ziziphi spinosae oil in the treatment of medicinal insomnia” (SHIJIAZHUANG YILING PHARMACEUTICAL CO., LTD., priority 2016, dated 2021).
Where two headings read alike, the source gives them in different places.

How the values were obtained:
[1] = system: mouse bone marrow cell; settings: 60 mg/kg positive control; for Number of Micronucleus-containing PCEs: 5000 PCEs tested
Description: The mice were given the samples every 24 h. […] They were executed at 6 h after the last gavage of sample, with the sternal bone marrow taken, prepared into slides, fixed in methanol and stained with Giemsa.
3.4.3 Outcome measure: During the microscopy, 1,000 polychromatic erythrocytes (PCE) were counted for each animal to calculate the micronucleus rate (MN‰).

[2] = system: Kunming mice; test: Length of sodium pentobarbital-induced sleep of mice with medicinal insomnia (ephedrine, prednisone); format: in vivo; settings: sodium pentobarbital 50 mg/kg ip
Description: Kunming mice, male, 18-22 g in weight;
60 mice were taken and placed into the laboratory for one week for acclimatization. Then they were randomly divided into 6 groups and dosed according to the drug and dosage in the table.
The investigational drug and insomnia-induced drugs were proportionally prepared into soybean oil solutions as investigational products, which were administered with via intragastric gavage with the intragastric volume calculated by 0.1 mL per 10 g body weight. The blank group was directly given soybean oil via intragastric gavage once daily, for consecutive 7 days. Mice were fasted at 8 h prior to the last dosing and given sodium pentobarbital (50 mg/kg) via intraperitoneal injection at 30 min after dosing, at the indoor temperature of 20° C. and the humidity of 40%. Measurements were made by using the righting reflex tester, the absence of righting reflex over 1 min was deemed as falling asleep, and the absence time and recovery time of righting reflex were observed and recorded. The duration from the absence of righting reflex to its recovery was the length of sleep.

[3] = system: mouse sperm; test: Mouse sperm malformation test; settings: 2.0 mg/kg positive control
[4] = GC fingerprint: study on the sample stability; format: physicochemical; settings: Semen Ziziphi Spinosae oil sample 2 test solution; for Relative peak area, RSD (%) / Relative retention time, RSD (%): RSD over 0-12 h; for Relative peak area, Mean / Relative retention time, Mean: mean over 0-12 h; for Relative peak area, standing time 0 / Relative retention time, standing time 0: tested at 0 h; for Relative peak area, standing time 0 / Relative retention time, standing time 0 / Relative peak area, standing time 3 / Relative retention time, standing time 3 / Relative peak area, standing time 6 / Relative retention time, standing time 6 / Relative peak area, standing time 9 / Relative retention time, standing time 9 / Relative peak area, standing time 12 / Relative retention time, standing time 12: GC; for Relative peak area, standing time 3 / Relative retention time, standing time 3: tested at 3 h; for Relative peak area, standing time 6 / Relative retention time, standing time 6: tested at 6 h; for Relative peak area, standing time 9 / Relative retention time, standing time 9: tested at 9 h; for Relative peak area, standing time 12 / Relative retention time, standing time 12: tested at 12 h
Description: Take 0.4 g of test sample, place into a 50 mL flask, add 6 mL of sodium hydroxide-methanol solution, and then connect with condenser water bath, and recirculate until the oil drops disappear, and slowly shake the flask every 30 sec to avoid solids formed by sodium hydroxide from being adhered onto the flask wall; recirculate 10 min, add 7 mL of boron trifluoride-methanol solution into the boiled solution through the top of the condenser using a pipette, boil for another 3 min, add 5 mL of isooctane into the boiling mixed solution through the top of the condenser, remove the condenser, take out the flask, add in 20 mL of sodium chloride solution immediately, plug the flask, shake the flask violently for 15 sec, transfer the mixed solution into a 150 mL separatory funnel, rinse the flask with 10 mL of isooctane solution twice (5 mL each time), merge the washing liquid into the separatory funnel, let the funnel stand still to stratify the solution, abandon the subnatant water liquid, place the supernatant isooctane solution into a 25 mL flask, fix the volume using isooctane, add a proper amount of sodium sulfate anhydrous to absorb the trace amount of water in the solution, shake the flask well and put aside for subsequent use.
GC: PerKinElmer Clarus 680
Chromatographic column: Agilent J&W Scientific DB-WAX quartz capillary column ([…]×0.32 mm, 0.25 μm)
Injector temperature: 270° C.,
Precisely draw 1 μL standard solution and 1 μL test solution into the gas chromatograph and conduct the test.
Semen Ziziphi Spinosae oil sample 2 was taken and prepared into test solution according to the preparation method under the item “3. Preparation of test article solution”, and the resulting test solution was tested at different time points (0 h, 3 h, 6 h, 9 h and 12 h) according to the experimental conditions under the item “4. Gas chromatographic conditions”.

O=P1(N(CCCl)CCCl)NCCCO1 (stereo not drawn) [Cyclophosphamide, cyclophosphamide]
Micronucleus-Cell Rate ([1]; Female mice): 24.6 ± 6.3 ‰
PCE/RBC ([1]; Female mice): 1.07 ± 0.13
Number of Micronucleus-containing PCEs ([1]; Female mice): 123
Micronucleus-Cell Rate ([1]; Male mice): 27.6 ± 10.4 ‰
PCE/RBC ([1]; Male mice): 1.21 ± 0.14
Number of Micronucleus-containing PCEs ([1]; Male mice): 138

CN[C@@H](C)[C@H](O)c1ccccc1 [Ephedrine, ephedrine]
Length of Sleep ([2]; Ephedrine 4 mg/kg alone ig 7 days): 60.8 ± 25.3 min

CO[C@@]12[C@H](COC(N)=O)C3=C(C(=O)C(C)=C(N)C3=O)N1C[C@@H]1N[C@@H]12 [Mitomycin C, mitomycin C]
Abnormal Rate [3]: 5.88 ± 0.97 %
Number of Aberrant Sperm: Amorphous ([3]; 5000 sperm tested): 119 n
Number of Aberrant Sperm: Banana ([3]; 5000 sperm tested): 23 n
Number of Aberrant Sperm: Big head ([3]; 5000 sperm tested): 5 n
Number of Aberrant Sperm: Folded ([3]; 5000 sperm tested): 24 n
Number of Aberrant Sperm: Hook-free ([3]; 5000 sperm tested): 113 n
Number of Aberrant Sperm: Subtotal ([3]; 5000 sperm tested): 294 n
Number of Aberrant Sperm: Two-head/two-tail ([3]; 5000 sperm tested): 10 n

CC/C=C\C/C=C\C/C=C\CCCCCCCC(=O)OC [Peak 5]
Relative peak area, RSD (%) [4]: 1.57%
Relative retention time, RSD (%) [4]: 0.04%
Relative peak area, Mean [4]: 0.009
Relative retention time, Mean [4]: 1.1834
Relative peak area, standing time 0 [4]: 0.009
Relative retention time, standing time 0 [4]: 1.184
Relative peak area, standing time 3 [4]: 0.009
Relative retention time, standing time 3 [4]: 1.184
Relative peak area, standing time 6 [4]: 0.009
Relative retention time, standing time 6 [4]: 1.184
Relative peak area, standing time 9 [4]: 0.009
Relative retention time, standing time 9 [4]: 1.183
Relative peak area, standing time 12 [4]: 0.009
Relative retention time, standing time 12 [4]: 1.183

CCCCCCCCCCCCCCCCCCCC(=O)OC [Peak 8]
Relative peak area, RSD (%) [4]: 1.16%
Relative retention time, RSD (%) [4]: 0.03%
Relative peak area, Mean [4]: 0.023
Relative retention time, Mean [4]: 1.3064
Relative peak area, standing time 0 [4]: 0.023
Relative retention time, standing time 0 [4]: 1.307
Relative peak area, standing time 3 [4]: 0.023
Relative retention time, standing time 3 [4]: 1.307
Relative peak area, standing time 6 [4]: 0.023
Relative retention time, standing time 6 [4]: 1.306
Relative peak area, standing time 9 [4]: 0.023
Relative retention time, standing time 9 [4]: 1.306
Relative peak area, standing time 12 [4]: 0.023
Relative retention time, standing time 12 [4]: 1.306

CCCCCCCCCCCCCCCCCCCCCC(=O)OC [Peak 11]
Relative peak area, RSD (%) [4]: 1.65%
Relative retention time, RSD (%) [4]: 0.08%
Relative peak area, Mean [4]: 0.020
Relative retention time, Mean [4]: 1.6532
Relative peak area, standing time 0 [4]: 0.020
Relative retention time, standing time 0 [4]: 1.655
Relative peak area, standing time 3 [4]: 0.021
Relative retention time, standing time 3 [4]: 1.654
Relative peak area, standing time 6 [4]: 0.021
Relative retention time, standing time 6 [4]: 1.653
Relative peak area, standing time 9 [4]: 0.021
Relative retention time, standing time 9 [4]: 1.651
Relative peak area, standing time 12 [4]: 0.021
Relative retention time, standing time 12 [4]: 1.653

CCCCCCCC/C=C\CCCCCCCC(=O)OC [Peak s]
Relative peak area, RSD (%) [4]: 0.00%
Relative retention time, RSD (%) [4]: 0.00%
Relative peak area, Mean [4]: 1.000
Relative retention time, Mean [4]: 1.0000
Relative peak area, standing time 0 [4]: 1.000
Relative retention time, standing time 0 [4]: 1.000
Relative peak area, standing time 3 [4]: 1.000
Relative retention time, standing time 3 [4]: 1.000
Relative peak area, standing time 6 [4]: 1.000
Relative retention time, standing time 6 [4]: 1.000
Relative peak area, standing time 9 [4]: 1.000
Relative retention time, standing time 9 [4]: 1.000
Relative peak area, standing time 12 [4]: 1.000
Relative retention time, standing time 12 [4]: 1.000

C[C@]12C=CC(=O)C=C1CC[C@@H]1[C@@H]2C(=O)C[C@@]2(C)[C@H]1CC[C@]2(O)C(=O)CO [Prednisone, prednisone]
Length of Sleep ([2]; Prednisone 1 mg/kg alone ig 7 days): 68.4 ± 27.1 min
